Data as given in PubChem BioAssay (NCI).
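These data come from cells grown in 96-well plates and exposed to compound for 48 hours at five concentrations. TGI: concentration producing complete growth inhibition.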

Tests used:
Test in all cases: growth of human tumour cells (NCI), 48 h
[1] = tested on: 786-0 renal
[2] = tested on: A549 NSCLC
[3] = tested on: ACHN renal
[4] = tested on: BT-549 breast
[5] = tested on: CAKI-1 renal
[6] = tested on: CCRF-CEM leukemia
[7] = tested on: COLO 205 colon
[8] = tested on: DU-145 prostate
[9] = tested on: EKVX NSCLC
[10] = tested on: HCC-2998 colon
[11] = tested on: HCT-116 colon
[12] = tested on: HCT-15 colon
[13] = tested on: HL-60(TB) leukemia
[14] = tested on: HOP-62 NSCLC
[15] = tested on: HOP-92 NSCLC
[16] = tested on: HS 578T breast
[17] = tested on: HT29 colon
[18] = tested on: IGROV1 ovarian
[19] = tested on: K-562 leukemia
[20] = tested on: KM12 colon
[21] = tested on: LOX IMVI melanoma
[22] = tested on: M14 melanoma
[23] = tested on: MALME-3M melanoma
[24] = tested on: MCF7 breast
[25] = tested on: MDA-MB-231 breast
[26] = tested on: MDA-MB-435
[27] = tested on: MOLT-4 leukemia
[28] = tested on: NCI-H226 lung
[29] = tested on: NCI-H23 lung
[30] = tested on: NCI-H460 lung
[31] = tested on: NCI-H522 lung
[32] = tested on: NCI/ADR-RES ovarian
[33] = tested on: OVCAR-3 ovarian
[34] = tested on: OVCAR-4 ovarian
[35] = tested on: OVCAR-5 ovarian
[36] = tested on: OVCAR-8 ovarian
[37] = tested on: PC-3 prostate
[38] = tested on: RPMI-8226 leukemia
[39] = tested on: RXF 393 renal
[40] = tested on: SF-268 CNS
[41] = tested on: SF-295 CNS
[42] = tested on: SK-MEL-2 melanoma
[43] = tested on: SK-MEL-28 melanoma
[44] = tested on: SK-MEL-5 melanoma
[45] = tested on: SK-OV-3 ovarian
[46] = tested on: SN12C renal
[47] = tested on: SNB-19 CNS
[48] = tested on: SNB-75 CNS
[49] = tested on: SR leukemia
[50] = tested on: SW-620 colon
[51] = tested on: T-47D breast
[52] = tested on: TK-10 renal
[53] = tested on: U251 CNS
[54] = tested on: UACC-257 melanoma
[55] = tested on: UACC-62 melanoma
[56] = tested on: UO-31 renal

O=C1Nc2cccc3cc(NCC(O)CCl)cc1c23 (stereo unspecified)
TGI [1]: > 100 µM
TGI [2]: > 100 µM
TGI [3]: > 100 µM
TGI [4]: > 100 µM
TGI [5]: > 100 µM
TGI [6]: > 100 µM
TGI [7]: > 100 µM
TGI [8]: > 100 µM
TGI [9]: > 100 µM
TGI [10]: > 100 µM
TGI [11]: > 100 µM
TGI [12]: > 100 µM
TGI [13]: > 100 µM
TGI [14]: > 100 µM
TGI [15]: > 100 µM
TGI [16]: > 100 µM
TGI [17]: > 100 µM
TGI [18]: > 100 µM
TGI [19]: > 100 µM
TGI [20]: > 100 µM
TGI [21]: > 100 µM
TGI [22]: > 100 µM
TGI [23]: > 100 µM
TGI [24]: > 100 µM
TGI [25]: > 100 µM
TGI [26]: > 100 µM
TGI [27]: 95.2 µM
TGI [28]: > 100 µM
TGI [29]: > 100 µM
TGI [30]: > 100 µM
TGI [31]: > 100 µM
TGI [32]: > 100 µM
TGI [33]: > 100 µM
TGI [34]: > 100 µM
TGI [35]: > 100 µM
TGI [36]: > 100 µM
TGI [37]: > 100 µM
TGI [38]: > 100 µM
TGI [39]: > 100 µM
TGI [40]: > 100 µM
TGI [41]: > 100 µM
TGI [42]: 69.9 µM
TGI [43]: > 100 µM
TGI [44]: > 100 µM
TGI [45]: > 100 µM
TGI [46]: > 100 µM
TGI [47]: > 100 µM
TGI [48]: > 100 µM
TGI [49]: 48 µM
TGI [50]: > 100 µM
TGI [51]: > 100 µM
TGI [52]: > 100 µM
TGI [53]: > 100 µM
TGI [54]: > 100 µM
TGI [55]: > 100 µM
TGI [56]: 92.1 µM
